Tested on: PKC
Test: Fluorescence properties of fim-1 with liposomes, purified PKC and erythrocytes
Format: biochemical
Conditions: fim-1 500 nM, Ex 485 nm
Method: Liposomes prepared from lipidic extracts of brain and a commercial preparation of purified a PKC are used, then erythrocytes are added.
This preparation is incubated for 20 minutes at ambient temperature, in the presence of fim-1 (500 nM) in a PBS buffer (150 mM NaCl, 10 mM NaHPO4, 5 mM D-glucose, 500 μm CaCl2, pH 7.4.
After washing, centrifugation and resuspension in PBS 1/150, the fluorescence emission spectrum is recorded between […], with an excitation wavelength of 485 nm.
The spectrum obtained is standardized relative to the fluorescence intensity measured with the probe alone, then broken down into the 3 elementary gaussian distributions represented in FIG. 1. An emission maximum is noted at 518, 535 and 586 nm respectively. The interactions between fim-1 and the membrane lipids as well as the PKC is expressed by a slight shift of the spectrum between […] for the lipids and an increase in fluorescence between 510 and 530 nm, and beyond 570 nm for the PKC.

Row | SMILES | effect on fluorescence intensity of fim-1 (addition of inhibitor) | increase of quantal yield of fim-1 fluorescence (factor) (in the presence of activator)
1 | CN[C@@H]1C[C@H]2O[C@@](C)([C@@H]1OC)n1c3ccccc3c3c4c(c5c6ccccc6n2c5c31)C(=O)NC4 [staurosporine] | inhibition in the fluorescence intensity | –
2 | CCCCCCCCCCCCCC(=O)O[C@@H]1[C@@H](C)[C@@]2(O)[C@@H](C=C(CO)C[C@]3(O)C(=O)C(C)=C[C@@H]23)[C@@H]2C(C)(C)[C@]12OC(C)=O [phorbol ester, phorbol myristate acetate] | – | 5000

From patent publication US6703212B1, “Methods and kits for diagnosing Alzheimer's disease from a blood sample” (priority 1997, dated 2004)
